From patent publication US20140309257A1, “TOPOISOMERASE INHIBITORS AND METHODS OF MAKING AND USE AS THERAPEUTIC AGENTS” (THE REGENTS OF THE UNIVERSITY OF COLORADO, a body corporate, priority 2011, published 2014)

Legend:
[1] = molecular target: TopoIIα (Homo sapiens, UniProt P11388); assay: In vitro ATP hydrolysis assay (malachite green); assay type: biochemical
Protocol: Efficacy of the ATP-competitive inhibition of TopoIIα inhibitors of the invention are tested in vitro using an ATP hydrolysis assay that quantifies inorganic phosphate through the formation of a high molar absorptivity complex with malachite green and molybdate, adapted for use in 384-well plates, with a total reaction volume of 15 μL. This assay was first utilized to determine the Km of TopoIIα for its natural substrate, ATP, using ATP concentrations ranging from 62.5-1600 μM. To measure the apparent Km, the same reactions were repeated in the presence of 2, 5, or 10 μM neo. Absorbance at 620 nm was measured using a microtiter plate reader. To determine the Ki the same method was used with the following modifications: inhibitors (0.1-10 μM) in reaction buffer (without DNA and DTT) are added to the complete reaction buffer and preincubated for 10 min at 37° C. Reactions were initiated by the addition of 600 μM ATP and incubated for 30 min at 37° C. The IC50 value was determined and the Ki was calculated using the Cheng-Prusoff equation. Experiments were repeated in triplicate and GraphPad Prism software was used to perform non-linear fits (method of least squares) to the Michaelis-Menten kinetics (Km and Vmax) or the dose-response inhibition model (IC50 values).

[2] = molecular target: Pgp (Homo sapiens, UniProt P08183); conditions: cited from earlier work
[3] = tested on: triple negative MDA-MB-231 breast carcinoma spheroids; assay: 3D-spheroid invasion; assay type: cell-based, human; conditions: through reversion of EMT
Description: A 3D-spheroid culture formulation was developed that allows for the culture of single uniform spheroids with variety of cell types in 96-well plates that can be used with a variety of epithelial-mesenchymal transition (EMT) biomarker reporters (see, U.S. Patent Publication No. 2011/0143960 A1; Li Q, Chen C, Kapadia A, Zhou Q, Harper M K, et al. (2011), 3D Models of epithelial-mesenchymal transition in breast cancer metastasis: high-throughput screening assay development, validation, and pilot screen. J Biomol Screen 16: 141-154). The 3D-spheroid based assays with neo (control) and derivatives were used to test their ability to revert EMT or induce cytotoxicity against human carcinomas resistant to clinically used TopoIIα drugs, including: MDA-MB-231, MCF7/AdrVP breast cancer, and SW480, Colo201, and DLD-1 (APC mutant) colon cancer cells. This 3D-model utilizes a luciferase reporter of vimentin, a key mesenchymal biomarker expressed in these cells. Vimentin expression is measured using a live spheroid luciferin substrate (caged luciferin) followed by a multiplex assay measuring spheroid viability. […]
Active compounds are then tested for their ability to inhibit spheroid invasion, as follows: Spheroid invasion is measured using 15 spheroids per sample group. […] Invading cells will be measured using an OPERETTA™ high content imaging system.

[4] = tested on: DNA; conditions: below 100 μM concentrations; cited from earlier work
[5] = tested on: xenograft tumors; conditions: in mice; compared with etoposide; cited from earlier work
[6] = tested on: human colon tumor (HCT-116); conditions: compared with 9-aminocamptothecin; cited from earlier work

Chain of TopoIIα (P11388 whole entry): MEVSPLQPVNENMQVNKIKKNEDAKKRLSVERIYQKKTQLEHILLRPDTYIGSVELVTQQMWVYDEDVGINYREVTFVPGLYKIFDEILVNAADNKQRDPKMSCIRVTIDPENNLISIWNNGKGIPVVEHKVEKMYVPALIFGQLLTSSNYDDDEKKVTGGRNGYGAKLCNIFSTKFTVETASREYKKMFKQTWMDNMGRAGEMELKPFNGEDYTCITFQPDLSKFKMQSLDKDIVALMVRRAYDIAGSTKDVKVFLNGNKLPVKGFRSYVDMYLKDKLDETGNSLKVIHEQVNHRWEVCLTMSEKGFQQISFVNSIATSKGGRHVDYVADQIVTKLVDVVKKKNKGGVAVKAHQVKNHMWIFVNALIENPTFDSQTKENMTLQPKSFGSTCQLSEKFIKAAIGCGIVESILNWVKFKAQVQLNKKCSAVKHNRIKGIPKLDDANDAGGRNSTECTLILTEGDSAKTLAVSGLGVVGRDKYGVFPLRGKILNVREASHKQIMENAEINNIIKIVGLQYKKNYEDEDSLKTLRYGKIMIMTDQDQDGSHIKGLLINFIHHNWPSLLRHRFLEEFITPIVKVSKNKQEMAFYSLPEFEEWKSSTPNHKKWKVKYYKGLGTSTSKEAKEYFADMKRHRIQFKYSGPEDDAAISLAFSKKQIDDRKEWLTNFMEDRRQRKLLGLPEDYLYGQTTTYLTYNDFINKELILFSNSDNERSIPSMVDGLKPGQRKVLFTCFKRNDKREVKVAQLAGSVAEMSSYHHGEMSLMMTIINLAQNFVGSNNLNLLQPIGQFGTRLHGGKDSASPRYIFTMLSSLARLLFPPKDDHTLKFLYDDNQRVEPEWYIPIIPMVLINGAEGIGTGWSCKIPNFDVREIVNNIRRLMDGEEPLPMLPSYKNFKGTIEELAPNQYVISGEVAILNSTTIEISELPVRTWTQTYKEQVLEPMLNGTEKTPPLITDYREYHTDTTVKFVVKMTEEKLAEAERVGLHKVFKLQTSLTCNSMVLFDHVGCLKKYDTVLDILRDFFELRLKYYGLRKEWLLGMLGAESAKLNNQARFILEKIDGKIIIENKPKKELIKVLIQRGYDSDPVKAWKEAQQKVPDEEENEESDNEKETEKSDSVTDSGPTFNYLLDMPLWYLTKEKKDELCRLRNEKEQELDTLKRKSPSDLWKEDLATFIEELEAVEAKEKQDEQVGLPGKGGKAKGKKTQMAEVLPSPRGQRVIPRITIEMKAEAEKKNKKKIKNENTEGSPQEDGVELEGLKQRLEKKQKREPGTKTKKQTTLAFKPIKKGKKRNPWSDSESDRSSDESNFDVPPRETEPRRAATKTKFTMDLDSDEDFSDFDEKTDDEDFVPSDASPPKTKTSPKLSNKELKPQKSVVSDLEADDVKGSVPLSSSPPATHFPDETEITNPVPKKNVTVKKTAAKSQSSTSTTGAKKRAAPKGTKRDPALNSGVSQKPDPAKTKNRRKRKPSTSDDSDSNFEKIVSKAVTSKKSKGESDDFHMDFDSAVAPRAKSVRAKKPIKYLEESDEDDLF
Chain of Pgp (P08183 whole entry): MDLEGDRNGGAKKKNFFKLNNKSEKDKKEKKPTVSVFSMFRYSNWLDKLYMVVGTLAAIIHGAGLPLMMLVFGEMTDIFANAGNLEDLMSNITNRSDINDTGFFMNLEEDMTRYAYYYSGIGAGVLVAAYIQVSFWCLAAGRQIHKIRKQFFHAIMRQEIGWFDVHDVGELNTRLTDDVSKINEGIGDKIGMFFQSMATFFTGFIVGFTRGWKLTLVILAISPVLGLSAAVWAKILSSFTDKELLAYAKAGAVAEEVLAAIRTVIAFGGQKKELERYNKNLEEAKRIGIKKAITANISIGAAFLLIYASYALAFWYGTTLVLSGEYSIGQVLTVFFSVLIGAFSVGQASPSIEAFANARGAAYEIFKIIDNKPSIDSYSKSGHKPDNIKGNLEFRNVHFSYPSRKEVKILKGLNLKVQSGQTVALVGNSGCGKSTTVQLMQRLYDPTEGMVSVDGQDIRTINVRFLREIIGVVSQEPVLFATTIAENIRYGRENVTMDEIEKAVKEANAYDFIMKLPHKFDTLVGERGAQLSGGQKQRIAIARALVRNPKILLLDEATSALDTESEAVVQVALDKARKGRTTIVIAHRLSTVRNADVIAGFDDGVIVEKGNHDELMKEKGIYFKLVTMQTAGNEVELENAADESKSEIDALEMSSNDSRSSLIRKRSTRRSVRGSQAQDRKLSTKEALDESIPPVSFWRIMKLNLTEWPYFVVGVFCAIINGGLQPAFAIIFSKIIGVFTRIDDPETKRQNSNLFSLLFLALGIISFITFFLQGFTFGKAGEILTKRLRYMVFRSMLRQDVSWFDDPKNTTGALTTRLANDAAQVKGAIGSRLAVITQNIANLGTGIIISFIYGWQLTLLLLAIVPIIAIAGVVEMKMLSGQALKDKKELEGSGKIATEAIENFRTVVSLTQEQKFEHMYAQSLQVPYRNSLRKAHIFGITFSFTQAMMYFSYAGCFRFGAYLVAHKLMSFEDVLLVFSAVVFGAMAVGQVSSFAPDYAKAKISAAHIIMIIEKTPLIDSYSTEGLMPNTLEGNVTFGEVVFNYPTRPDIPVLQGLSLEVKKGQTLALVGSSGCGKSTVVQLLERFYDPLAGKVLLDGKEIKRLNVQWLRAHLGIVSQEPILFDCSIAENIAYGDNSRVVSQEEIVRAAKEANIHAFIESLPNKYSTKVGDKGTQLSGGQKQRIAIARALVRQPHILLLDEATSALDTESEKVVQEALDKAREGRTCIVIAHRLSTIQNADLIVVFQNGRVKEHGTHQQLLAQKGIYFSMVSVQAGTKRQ

For Cn1ccc2c(c1=O)C(=O)c1nccc3c1c-2nc1ccccc13 [neo, Neoamphimedine], the Ki ([1]; corresponding to the IC50, calculated using the Cheng-Prusoff equation, read-out: Ki, inhibition of TopoIIα ATPase function) was 0.8 ± 0.3 µM, the “increase of the apparent Km of TopoIIα for ATP” value ([1]; over a concentration range from 0-10 μM) was “approximately 2 fold” and the IC50 ([1]; read-out: IC50, inhibition of TopoIIα ATPase function) was 2 µM. For the same compound, the “substrate for Pgp-dependent MDR” value [2] was “not a substrate”, the “inhibition of invasive potential of spheroids” value [3] was “significantly inhibits the invasive potential” and the “stabilization of the cleaved complex, DNA strand breaks or intercalation of DNA” value [4] was “without stabilizing the cleaved complex, or causing significant DNA strand breaks or intercalation of DNA”. The “inhibition of the growth of xenograft tumors” value [5] was “as effective as etoposide” and the “efficacy in HCT-116 xenografts” value [6] was “as efficacious as”.
